Source: patent US20100204295A1, “TREATMENT OF ALLERGIC DISEASE WITH IMMUNOMODULATOR COMPOUNDS” (SCICLONE PHARMACEUTICALS, INC., priority 2007, published 2010)
Where “and” joins values, the source holds several entries; their conditions need not be identical. Identical values can stand only once. Entries after “also recorded” stand apart in the source; their conditions may differ.

What was measured:
[1] = system: interleukin-4; test: ConA-induced IL-4 production by splenocytes after intra-abdominal SCV-07; format: in vivo, mice; conditions: 1 μg/kg, five daily intra-abdominal injections; ConA 5 μg/mL
Procedure: SCV-07 was administered to intact wild mice in the form of five daily intra-abdominal injections at dosages of 0.1 and 1.0 μg/kg of body weight. After this, isolation of spleen cells was carried out the cytokine synthesis was induced in the culture by stimulating the cells with concanavalin A at a dosage of 5 μg/mL. The levels of the synthesized cytokines were determined by quantitative immunoenzyme analysis. […] The changes on ConA-induced production of two other [sic] cytokines—IFN-γ and IL-4, as is apparent from FIG. 1, were reciprocal in nature.

[2] = system: 5-FU-immune-suppressed animals; conditions: in vivo; cited from earlier work
[3] = system: immediate allergic reaction to OVA aerosol; test: Immediate response to aerosol, comments recorded during aerosolization, guinea pig model; format: in vivo, Dunkin-Hartley guinea pigs; conditions: one animal per line, listed as SCV
Procedure: Female Dunkin-Hartley guinea pigs (200-350 g) were purchased from Charles River, Kingston, New York facility, Barrier […]. Animals were shipped to Duluth, Minn., and held in our animal facility for 5-7 days prior to beginning the experiment. Experimental treatment groups are outlined in Table 7. Animals were sensitized on day 0 ip with 50 mg/kg OVA. On Days 17, 18, 19, and 20, animals received an ip injection between 8 and 10 am with PBS, SCV-07 at 1 ug/kg, or SCV-07 at 10 ug/kg (Peptide treatment). Between 8 and 10 a.m. on Day 21, animals were administered peptide 2 hours before OVA or saline (NSS) aerosol challenge. 30 min before OVA or NSS aerosol challenge each animal was injected ip with an antihistamine (6.1 mg/kg pyrilamine maleate) to prevent death due to the anaphylactic response that accompanies aerosol OVA challenge. Animals were exposed to aerosol in pairs with either 1% OVA solution or NSS for 5 min in a plexiglass chamber (22×22×29 cm) using a DeVilbiss Model 35B Ultrasonic Nebulizer. Animals were observed during the total 5 min aerosolization and comments recorded. Within 22-24 hours after challenge, animals were euthanized, bled by cardiac puncture, lavaged and lung lobes removed for measurement of cellular infiltration. At the time of OVA or NSS challenge and euthanasia, animal weights ranged from approximately 350-550 g, with the average weight approximately 420 g. This experimental protocol is similar to that used in previously published studies (Regal and Fraser, 1996; Regal et al., 2000). The experimenter was not blinded to the treatment. […] In general, animals sensitized and challenged with OVA and antihistamine pre-treated will not die from the allergen challenge, but will experience labored breathing and oftentimes coughing and gasping. All 7 animals in the PBS OVA treatment group had some visible reaction as expected. The remarkable finding was the number of animals in the SCV 1 OVA and SCV 10 OVA treatment groups that had no apparent reaction to the OVA aerosol. […] The obvious speculation is that SCV-07 attenuates the immediate bronchoconstriction to allergen challenge. Follow-up experiments are definitely indicated by this observation.

[4] = in vivo; cited from earlier work
[5] = system: RBCs and protein in the BAL; test: Lung injury / microvascular permeability: RBCs and total protein in BAL, guinea pig model; format: in vivo, Dunkin-Hartley guinea pigs
Procedure: Animals were sensitized on day 0 ip with 50 mg/kg OVA. On Days 17, 18, 19, and 20, animals received an ip injection between 8 and 10 am with PBS, SCV-07 at 1 ug/kg, or SCV-07 at 10 ug/kg (Peptide treatment). Between 8 and 10 a.m. on Day 21, animals were administered peptide 2 hours before OVA or saline (NSS) aerosol challenge. 30 min before OVA or NSS aerosol challenge each animal was injected ip with an antihistamine (6.1 mg/kg pyrilamine maleate) to prevent death due to the anaphylactic response that accompanies aerosol OVA challenge. Animals were exposed to aerosol in pairs with either 1% OVA solution or NSS for 5 min in a plexiglass chamber (22×22×29 cm) using a DeVilbiss Model 35B Ultrasonic Nebulizer. Animals were observed during the total 5 min aerosolization and comments recorded. Within 22-24 hours after challenge, animals were euthanized, bled by cardiac puncture, lavaged and lung lobes removed for measurement of cellular infiltration. At the time of OVA or NSS challenge and euthanasia, animal weights ranged from approximately 350-550 g, with the average weight approximately 420 g. This experimental protocol is similar to that used in previously published studies (Regal and Fraser, 1996; Regal et al., 2000). […] Total white blood cells in BAL were counted by standard methods in a hemacytometer using Turk's solution. […] Four hundred cells were counted and identified as eosinophils, neutrophils, or mononuclear cells. […] EPO activity from the homogenized lung after lavage was expressed as total OD/min from the left caudal lobe. MPO activity from the homogenized lung after lavage was expressed as total units of enzyme activity from the right caudal lobe. […] OD412 of the BAL supernatant was also determined to estimate the number of RBCS that were lysed during the lavage procedure and prior to re-suspension of the cells for counting. […] Lung injury and/or changes in microvascular permeability were assessed by determining the RBCs in the BAL (FIG. 7A-B) as well as the overall protein content of the BAL fluid (FIG. 7C). […]

Compound: N[C@H](CCC(=O)N[C@@H](Cc1c[nH]c2ccccc12)C(=O)O)C(=O)O [SCV-07, γ-D-glutamyl-L-tryptophan]
- Change in ConA-induced production of IL-4 by the splenocytes [1]: two-fold reduction
- Effect on 5-FU-immune-suppressed animals [2]: strong immunostimulatory effect
- Comment recorded during aerosolization ([3]; SCV 1 NSS: SCV-07 1 ug/kg ip, NSS aerosol): huddling in corner; also recorded: no rx
- Comment recorded during aerosolization ([3]; SCV 1 OVA: SCV-07 1 ug/kg ip, OVA aerosol): slight cough 1x? and 1 cough?
- Comment recorded during aerosolization ([3]; SCV 10 NSS: SCV-07 10 ug/kg ip, NSS aerosol): huddling in corner, no rx
- Comment recorded during aerosolization ([3]; SCV 10 OVA: SCV-07 10 ug/kg ip, OVA aerosol): no rx (3×) and slight cough and 1 cough? and deeper breathing (2×)
- Non-toxic dose as multiple of the employed doses [4]: ≥ 100,000 times
- OD412 of the BAL supernatant ([5]; change from NSS to OVA): significantly reduced
- Number of RBCs in the BAL (OD412 of lysed cell pellet), change from NSS to OVA ([5]; either 1 or 10 ug/kg): significantly attenuated
- Total protein in the BAL fluid ([5]; guinea pig, in vivo): not affected
